Laboratory results from patent US7482379B2, “Propenoyl hydrazides” (priority 2004, dated 2009).

What was measured:
Cathepsin B = Cathepsin B (Homo sapiens, UniProt P07858); assay: Cathepsin B incubation inhibition assay; format: biochemical; conditions: Table 4, cross reactivity of caspase inhibitors; listed as Cbz-Leu-Glu-Thr-AAsp-trans-CH═CH—COOEt
Procedure: Papain and Cathepsin B. The incubation method was used to measure the irreversible inhibition of papain and cathepsin B. […] Pseudo first-order inactivation rate constants were obtained from plots of ln vt/vo versus time.

Calpain I = target: T1, Calpain I (Sus scrofa, UniProt P35750); assay: Calpain I incubation inhibition assay; format: biochemical, porcine; conditions: Table 4, cross reactivity of caspase inhibitors; listed as Cbz-Leu-Glu-Thr-AAsp-trans-CH═CH—COOEt
T1 construct: by the incubation method with calpain I from porcine erythrocytes; from tissue; host or cells: porcine erythrocytes
T1 sequence (P35750 1-714): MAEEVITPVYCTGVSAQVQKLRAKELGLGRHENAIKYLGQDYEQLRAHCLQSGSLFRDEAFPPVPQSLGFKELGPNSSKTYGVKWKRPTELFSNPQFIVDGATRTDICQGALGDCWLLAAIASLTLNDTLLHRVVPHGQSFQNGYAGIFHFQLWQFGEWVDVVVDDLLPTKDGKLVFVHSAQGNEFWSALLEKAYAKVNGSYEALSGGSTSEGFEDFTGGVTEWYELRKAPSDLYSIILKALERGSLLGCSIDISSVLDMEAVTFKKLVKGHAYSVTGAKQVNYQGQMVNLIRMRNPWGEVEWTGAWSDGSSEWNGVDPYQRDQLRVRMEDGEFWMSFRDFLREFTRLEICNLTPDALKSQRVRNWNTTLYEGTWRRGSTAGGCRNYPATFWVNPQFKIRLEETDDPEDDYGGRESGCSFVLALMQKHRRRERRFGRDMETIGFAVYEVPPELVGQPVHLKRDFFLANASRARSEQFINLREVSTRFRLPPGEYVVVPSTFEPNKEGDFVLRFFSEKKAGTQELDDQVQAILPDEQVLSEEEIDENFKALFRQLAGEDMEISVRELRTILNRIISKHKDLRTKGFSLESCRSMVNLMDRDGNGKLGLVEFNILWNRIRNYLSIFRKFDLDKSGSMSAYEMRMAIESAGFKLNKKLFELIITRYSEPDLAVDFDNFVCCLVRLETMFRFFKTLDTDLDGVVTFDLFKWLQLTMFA
T1 sequence (P04574 1-266 partner): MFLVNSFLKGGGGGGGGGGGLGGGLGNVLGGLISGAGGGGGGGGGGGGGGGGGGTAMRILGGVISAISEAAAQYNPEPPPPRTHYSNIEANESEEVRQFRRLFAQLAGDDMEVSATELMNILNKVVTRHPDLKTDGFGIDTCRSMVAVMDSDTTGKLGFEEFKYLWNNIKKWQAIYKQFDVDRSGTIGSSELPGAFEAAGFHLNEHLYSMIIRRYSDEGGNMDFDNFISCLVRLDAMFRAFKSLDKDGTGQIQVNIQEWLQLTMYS
Procedure: Calpain I. Irreversible kinetic assays were performed by the incubation method with calpain I from porcine erythrocytes. […] At various time intervals 50 μL aliquots were withdrawn from the incubation mixture and added to 200 μL enzyme buffer containing Suc-Leu-Tyr-AMC (1.6 mM). […] Pseudo first-order rate constants (kobs) were obtained from plots of ln vt/vo versus time.

Caspase-3 = target: T2, Caspase-3 (Homo sapiens, UniProt P42574); assay: Caspase-3 progress curve inhibition assay; conditions: second-order rate constant; Ac-DEVD-AMC substrate; Pipes buffer pH 7.2
T2 sequence (P42574 29-175 limits assumed): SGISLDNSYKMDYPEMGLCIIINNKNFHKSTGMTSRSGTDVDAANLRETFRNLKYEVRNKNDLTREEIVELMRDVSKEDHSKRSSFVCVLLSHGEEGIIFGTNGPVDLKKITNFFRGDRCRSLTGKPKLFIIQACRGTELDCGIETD
T2 sequence (P42574 176-277 limits assumed): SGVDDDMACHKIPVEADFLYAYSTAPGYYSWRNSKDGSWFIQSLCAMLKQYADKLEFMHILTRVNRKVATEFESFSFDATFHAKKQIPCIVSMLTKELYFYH

Caspase-9 = target: T3, Caspase-9 (Homo sapiens, UniProt P55211); assay: Caspase-9 progress curve inhibition assay; conditions: second-order rate constant; Ac-LEHD-AFC substrate; Hepes buffer pH 7.0 with 0.7 M sodium citrate
T3 sequence (P55211 1-315 limits assumed): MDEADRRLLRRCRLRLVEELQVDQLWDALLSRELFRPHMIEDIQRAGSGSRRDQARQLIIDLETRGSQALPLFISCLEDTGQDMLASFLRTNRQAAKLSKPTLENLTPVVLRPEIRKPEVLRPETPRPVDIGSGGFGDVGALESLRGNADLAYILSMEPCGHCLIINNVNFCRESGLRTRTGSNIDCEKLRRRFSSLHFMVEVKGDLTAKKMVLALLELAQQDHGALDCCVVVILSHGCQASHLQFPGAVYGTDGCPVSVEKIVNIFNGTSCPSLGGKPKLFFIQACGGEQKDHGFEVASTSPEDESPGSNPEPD
T3 sequence (P55211 331-416 limits assumed): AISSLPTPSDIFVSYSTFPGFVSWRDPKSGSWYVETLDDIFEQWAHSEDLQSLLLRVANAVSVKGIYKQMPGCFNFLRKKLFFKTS

## CCOC(=O)/C=C/C(=O)N(CC(=O)O)NC(=O)[C@@H](NC(=O)[C@H](CCC(=O)O)NC(=O)[C@H](CC(C)C)NC(=O)OCc1ccccc1)[C@@H](C)O (relative stereo) [Cbz-Leu-Glu-Thr-AAsp-CH═CH—COOEt, N^2—(N-Berzyloxycarbonylleucylglutamylthreonyl)-N^1-carboxymethyl-N^1-trans-(3-ethoxycarbonylpropenoyl)hydrazine]
Cathepsin B
  k2 Cathepsin B: <10 M⁻¹ s⁻¹
Calpain I
  k2 Calpain: <10 M⁻¹ s⁻¹
Caspase-3
  k2 Caspase-3: 5,560 M^−1s^−1
Caspase-9
  k2 Caspase-9: 37 M⁻¹ s⁻¹
